Measurements taken from US10413581B2, “Combination, composition, and method of administering the combination or composition to animals” (Phibro Animal Health Corporation, priority 2014, dated 2019).

Tests used:
Type in all cases: in vivo
[1] = system: coccidia; experiment: Example 10: composition in combination with Monensin: performance, total coccidia oocysts per gram; conditions: Composition 250 ppm, Monensin 68 ppm, alone or combined; for Adj. FCR / Feed Intake / Wt. Gain: D 0-42
Experimental: (§1) In this examples the effect of a composition comprising Quillaja saponaria and Yucca schidigera in combination with Monensin was determined. In some embodiments, the composition was a commercial product sold under the trade name MAGNI-PHI by Phibro Animal Health Corporation. Four treatment regimens were used: a control with no medication; 250 ppm of the composition; 68 ppm Monensin; and 250 ppm composition in combination with 68 ppm Monensin.
(§2) On Days 14, 21, and 28 fresh fecal samples were collected from each pen. These representative samples were tested to determine the degree of coccidia oocysts per gram of litter, by determining oocysts shedding/cycling. Oocysts per gram were determined for each sample.

[2] = system: E. adenoeides; experiment: Example 10: oocysts per gram fecal material, E. adenoeides; conditions: Composition 250 ppm, Monensin 68 ppm, alone or combined
Experimental: as §1, §2

[3] = system: E. meleagrimitis; experiment: Example 10: oocysts per gram fecal material, E. meleagrimitis; conditions: Composition 250 ppm, Monensin 68 ppm, alone or combined
Experimental: as §1, §2

[4] = system: E. gallopavonis; experiment: Example 10: oocysts per gram fecal material, E. gallopavonis; conditions: Composition 250 ppm, Monensin 68 ppm, alone or combined
Experimental: as §1, §2

Compound: CC[C@@]1([C@@H]2O[C@@H]([C@H]3O[C@@](O)(CO)[C@H](C)C[C@@H]3C)C[C@@H]2C)CC[C@H]([C@]2(C)CC[C@]3(C[C@H](O)[C@@H](C)[C@@H]([C@@H](C)[C@@H](OC)[C@H](C)C(=O)O)O3)O2)O1 [Monensin]
- Oocysts per gram fecal material Total ([1]; D 14): 1571bc oocysts per gram
- Oocysts per gram fecal material Total ([1]; D 21): 3409c oocysts per gram
- Oocysts per gram fecal material Total ([1]; D 28): 252b oocysts per gram
- Adj. FCR ([1]; Day 14): 1.473b
- Feed Intake ([1]; Day 14): 20.04b
- Wt. Gain ([1]; Day 14): 0.261a kg
- Adj. FCR ([1]; Day 28): 1.562b
- Feed Intake ([1]; Day 28): 51.81a
- Wt. Gain ([1]; Day 28): 0.703a kg
- Adj. FCR ([1]; Day 42): 1.707b
- Feed Intake ([1]; Day 42): 124.77b
- Wt. Gain ([1]; Day 42): 1.614bc kg
- Oocysts per gram fecal material E. aden. ([2]; D 14): 356ab oocysts per gram
- Oocysts per gram fecal material E. aden. ([2]; D 21): 237bc oocysts per gram
- Oocysts per gram fecal material E. aden. ([2]; D 28): 29b oocysts per gram
- Oocysts per gram fecal material E. mel. ([3]; D 14): 786b oocysts per gram
- Oocysts per gram fecal material E. mel. ([3]; D 21): 2549c oocysts per gram
- Oocysts per gram fecal material E. mel. ([3]; D 28): 74b oocysts per gram
- Oocysts per gram fecal material E. gallo. ([4]; D 14): 430ab oocysts per gram
- Oocysts per gram fecal material E. gallo. ([4]; D 21): 623a oocysts per gram
- Oocysts per gram fecal material E. gallo. ([4]; D 28): 119a oocysts per gram
